Assay results as given in ChEMBL document CHEMBL4000174, “Synthesis and antitumor activity of novel substituted uracil-1'(N)-acetic acid ester derivatives of 20(S)-camptothecins” (Eur J Med Chem, 2017).
Calls of active or inactive are those of the source. No cut-off for these calls is given here.

Tests used:
Bel-7402 [1] = experiment: Antiproliferative activity against human Bel7402 cells after 96 hrs by MTT assay; format: functional, cell-based; conditions: Bel-7402, 96 h
A2780 = experiment: Antiproliferative activity against human A2780 cells after 96 hrs by MTT assay; format: functional, cell-based; conditions: A2780, 96 h
Mus musculus [2] = experiment: Toxicity in Kunming mouse implanted with mouse H22 cells assessed as body weight at 40 mg/kg, ip administered on day 1 and day 5 (reference value: 32.5 g); format: organism-based; conditions: in vivo
H22 [3] = experiment: Antitumor activity against mouse H22 cells implanted in Kunming mouse assessed as tumor growth inhibition at 40 mg/kg, ip administered on day 1 and day 5 relative to control relative to control; format: functional; conditions: read-out: TGI
H22 [4] = experiment: Antitumor activity against mouse H22 cells implanted in Kunming mouse assessed as tumor growth inhibition at 60 mg/kg, ip administered twice relative to control; format: functional; conditions: read-out: TGI
BGC-823 [5] = experiment: Antitumor activity against human BGC823 cells xenografted in BALB/c nude mouse assessed as tumor growth inhibition at 60 mg/kg, ip administered once in a week for two weeks starting from 6 days post tumor transplantation measured 27 to 30 days post tumor transplantation relative to control; format: functional; conditions: BGC-823, ip, read-out: TGI
Mus musculus [6] = experiment: Toxicity in Kunming mouse implanted with mouse H22 cell assessed as survival at 40 mg/kg, ip administered on day 1 and day 5; format: organism-based; conditions: in vivo
BGC-823 [7] = experiment: Antitumor activity against human BGC823 cells xenografted in BALB/c nude mouse assessed as tumor volume at 30 mg/kg, ip administered once in a week for two weeks starting from 6 days post tumor transplantation measured 27 to 30 days post tumor transplantation relative to control; format: functional
Escherichia coli = experiment: Inhibition of Escherichia coli topoisomerase 1-mediated relaxation of supercoiled Pcmv-6 plasmid DNA at 30 to 50 uM after 30 mins by ethidium bromide staining based agarose gel electrophoretic analysis
A549 [8] = experiment: Induction of apoptosis in human A549 cells assessed as necrotic cells at 8 nM after 24 hrs by Annexin V-FITC/propidium iodide staining based flow cytometry (reference value: 7.62%); format: functional
A549 [9] = experiment: Induction of apoptosis in human A549 cells assessed as early apoptotic cells at 8 nM after 24 hrs by Annexin V-FITC/propidium iodide staining based flow cytometry (reference value: 0.50%); format: functional
A549 [10] = experiment: Induction of apoptosis in human A549 cells assessed as viable cells at 8 nM after 24 hrs by Annexin V-FITC/propidium iodide staining based flow cytometry (reference value: 89.41%); format: functional; conditions: A549, 24 h, read-out: Activity
A549 [11] = experiment: Cell cycle arrest in human A549 cells assessed as accumulation at G0/G1 phase at 8 nM after 24 hrs by propidium iodide staining based flow cytometry (reference value: 58.84%); format: functional
A549 [12] = experiment: Cell cycle arrest in human A549 cells assessed as accumulation at S phase at 8 nM after 24 hrs by propidium iodide staining based flow cytometry (reference value: 32.80%); format: functional
A549 [13] = experiment: Cell cycle arrest in human A549 cells assessed as accumulation at G0/G1 phase at 25 nM after 24 hrs by propidium iodide staining based flow cytometry (reference value: 58.84%); format: functional
A549 [14] = experiment: Cell cycle arrest in human A549 cells assessed as accumulation at S phase at 75 nM after 24 hrs by propidium iodide staining based flow cytometry (reference value: 32.80%); format: functional
A549 [15] = experiment: Induction of apoptosis in human A549 cells assessed as early apoptotic cells at 75 nM after 24 hrs by Annexin V-FITC/propidium iodide staining based flow cytometry (reference value: 0.50%); format: functional
A549 [16] = experiment: Induction of apoptosis in human A549 cells assessed as late apoptotic cells at 75 nM after 24 hrs by Annexin V-FITC/propidium iodide staining based flow cytometry (reference value: 2.47%); format: functional
A549 [17] = experiment: Induction of apoptosis in human A549 cells assessed as viable cells at 25 nM after 24 hrs by Annexin V-FITC/propidium iodide staining based flow cytometry (reference value: 89.41%); format: functional; conditions: A549, 24 h, read-out: Activity
A549 [18] = experiment: Induction of apoptosis in human A549 cells assessed as late apoptotic cells at 25 nM after 24 hrs by Annexin V-FITC/propidium iodide staining based flow cytometry (reference value: 2.47%); format: functional
A549 [19] = experiment: Induction of apoptosis in human A549 cells assessed as cell shrinkage after 24 hrs by phase contrast microscopy; format: functional, cell-based
A549 [20] = experiment: Induction of apoptosis in human A549 cells assessed as increase in Bax protein level at 8 to 75 nM by Western blot method; format: functional, cell-based
Mus musculus [21] = experiment: Toxicity in BALB/c nude mouse xenografted with human Bel7402 cells assessed as body weight at 60 mg/kg, ip aadministered once in a week for two weeks starting from 6 days post tumor transplantation measured every 3 days for 21 days (reference value: 14.5 g); format: organism-based; conditions: in vivo, 504 h
Mus musculus [22] = experiment: Toxicity in BALB/c nude mouse xenografted with human Bel7402 cells assessed as body weight at 30 mg/kg, ip administered once in a week for two weeks starting from 6 days post tumor transplantation measured every 3 days for 21 days (reference value: 14.5 g); format: organism-based; conditions: in vivo, 504 h
Bel-7402 [23] = experiment: Antitumor activity against human Bel7402 cells xenografted in BALB/c nude mouse assessed as tumor growth inhibition at 60 mg/kg, ip administered once in a week for two weeks starting from 6 days post tumor transplantation measured 27 to 30 days post tumor transplantation relative to control; format: functional; conditions: Bel-7402, ip, read-out: TGI
Mus musculus [24] = experiment: Toxicity in Kunming mouse implanted with mouse H22 cells assessed as body weight at 100 mg/kg, ip administered once (reference value: 31.1 g); format: organism-based; conditions: in vivo
Mus musculus [25] = experiment: Toxicity in Kunming mouse implanted with mouse H22 cells assessed as body weight at 60 mg/kg, ip administered twice (reference value: 31.1 g); format: organism-based; conditions: in vivo
Mus musculus [26] = experiment: Toxicity in Kunming mouse implanted with mouse H22 cells assessed as survival at 60 mg/kg, ip administered twice; format: organism-based; conditions: in vivo
Mus musculus [27] = experiment: Toxicity in BALB/c nude mouse xenografted with human BGC823 cells assessed as mouse survival at 60 mg/kg, ip administered once in a week for two weeks starting from 6 days post tumor transplantation; format: organism-based; conditions: in vivo, 144 h
Mus musculus [28] = experiment: Toxicity in BALB/c nude mouse xenografted with human BGC823 cells assessed as mouse survival at 30 mg/kg, ip administered once in a week for two weeks starting from 6 days post tumor transplantation; format: organism-based; conditions: in vivo, 144 h
Bel-7402 [29] = experiment: Antitumor activity against human Bel7402 cells xenografted in BALB/c nude mouse assessed as tumor volume at 30 mg/kg, ip administered once in a week for two weeks starting from 6 days post tumor transplantation measured 27 to 30 days post tumor transplantation relative to control; format: functional
Mus musculus [30] = experiment: Antitumor activity in BALB/c nude mouse xenografted with human Bel7402 cells assessed as tumor volume at 60 mg/kg, ip administered once in a week for two weeks starting from 6 days post tumor transplantation measured every 3 days for 21 days (reference value: […]); conditions: in vivo, 504 h
Mus musculus [31] = experiment: Toxicity in BALB/c nude mouse xenografted with human BGC823 cells assessed as tumor volume at 60 mg/kg, ip administered once in a week for two weeks starting from 6 days post tumor transplantation and measured every 3 days during compound dosing for 15 days (reference value: […]); conditions: in vivo, 360 h

## CCc1c2c(nc3ccccc13)-c1cc3c(c(=O)n1C2)COC(=O)[C@@]3(CC)OC(=O)Cn1cc(F)c(=O)[nH]c1=O
Bel-7402 [1]
  IC50: 14 nM
A2780
  IC50: 147 nM
Mus musculus [2]
  Activity: 27.3 g
H22 [3]
  inhibition in vivo at 40 mg/kg: 57.5%
H22 [4]
  inhibition in vivo at 60 mg/kg: 64.5%
BGC-823 [5]
  inhibition in vivo at 60 mg/kg: 96%
Mus musculus [6]
  Activity: Non-Toxic
BGC-823 [7]
  T/C: 12.65%
Escherichia coli
  inhibition: Active
A549 [8]
  Activity: 3.74%
A549 [9]
  Activity: 3%
A549 [10]
  viability at 0.008 µM: 80.2%
A549 [11]
  Activity: 32.28%
A549 [12]
  Activity: 36.5%
A549 [13]
  Activity: 7.09%
A549 [14]
  Activity: 30.76%
A549 [15]
  Activity: 23.7%
A549 [16]
  Activity: 34.98%
A549 [17]
  viability at 0.025 µM: 53.4%
A549 [18]
  Activity: 26.6%
A549 [19]
  Activity: Dose-dependent effect
A549 [20]
  Activity: Active
Mus musculus [21]
  Activity: Non-Toxic
Mus musculus [22]
  Activity: Non-Toxic
Bel-7402 [23]
  inhibition in vivo at 60 mg/kg: 81.5%
Mus musculus [24]
  Activity: 29.8 g
Mus musculus [25]
  Activity: 27.2 g
Mus musculus [26]
  Activity: Non-Toxic
Mus musculus [27]
  Activity: Non-Toxic
Mus musculus [28]
  Activity: Non-Toxic
Bel-7402 [29]
  T/C: 41.17%
Mus musculus [30]
  tumor volume: 127 mm³
Mus musculus [31]
  tumor volume: 143 mm³
